Laboratory results published in patent US20120003154A1, “ARYLOXYANILIDE DERIVATIVES” (priority 2009, published 2012).
pKi: −log10 of the molar value. Like-named read-outs stand apart in the source and are kept apart here. One block for each compound: values may come before it.

Key:
Wistar rat heart PBR = molecular target: T1, Wistar rat heart PBR (Rattus norvegicus, UniProt P16257); assay: In vitro potency assay (competition binding against [3H]PK-11195)
T1 construct: PK-11195; from tissue; host or cells: Wistar rat heart
Description: Affinity for PBR was screened using a method adapted from Le Fur et al (Life Sci. 1983; USA 33: 449-57).
Each test compound (dissolved in 50 mM Tris-HCl, pH 7.4, 10 mM MgCl2 containing 1% DMSO) competed for binding to Wistar rat heart PBR against 0.3 nM [^3H] […] The reaction was carried out in 50 mM Tris-HCl, pH 7.4 10 mM MgCl2 for 15 minutes at 25° C.

PBR = conditions: Wilson et al Nuc. Med. Biol. 2008; cited from earlier work

measured potency for PBR compared with [18F]-FE-PBR28 (Wistar rat heart PBR; relative to FE-PBR28): two orders of magnitude less
Compound: CC(=O)N(Cc1ccccc1OCC[18F])c1cccnc1Oc1ccccc1 [Imaging Agent 1]

pKi (Wistar rat heart PBR; read-out: Ki): 8.37
Compound: CC(=O)N(Cc1ccccc1OCCF)c1cccnc1Oc1ccccc1 [Non-radioactive imaging agent 1, N-[2(2-fluoroethoxy)benzyl]-N-(2-phenoxypyridin-3-yl)acetamide]

Compound: COc1ncccc1CN(C(=O)CF)c1ccccc1Oc1ccccc1 [Non-radioactive imaging agent 18, 2-Flouro-N-(2-methoxy-pyridin-3-ylmethyl)-N-(2-phenoxy-phenyl)-acetamide]
pKi (Wistar rat heart PBR): 8.42

pKi (Wistar rat heart PBR; read-out: Ki): 8.99
Compound: CC(=O)N(Cc1cccnc1OCCF)c1ccccc1Oc1ccccc1 [Non-radioactive imaging agent 19, N-[2-(2-Fluoro-ethoxy)-pyridin-3-ylmethyl]-N-(2-phenoxy-phenyl)-acetamide]

Compound: CC(=O)N(Cc1ccccc1OCC[18F])c1cnccc1Oc1ccccc1 [[^18F]-FE-PBR28]
affinity for PBR in vitro (PBR): subnanomolar
